Reference: PubChem BioAssay AID1963982 (Molecular Pharmacology Branch, DTP, NCI, 2024)

System: 313798-341-R-J2-PDC spheroids, viability
Assay: Anticancer human tumor 313798-341-R-J2-PDC patient-derived cervical squamous cell carcinoma cell line growth inhibition [PI3K]
Details: spheroids with HUVEC and MSC; for IC50: curve of first compound; for viability, T/C: stronger effect = lower value
Procedure, shortened: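 We assembled tumor spheroids that included a stromal compartment of HUVEC and MSCs, then exposed them to targeted agents alone and together with PI3K pathway inhibitors. Concentration series descended by half-log from clinically achievable Cmax levels. Viability served as the endpoint.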

[1] = second compound 0.0316 µM, first compound 0.0316 µM
[2] = second compound 0.0316 µM, first compound 0.1 µM
[3] = second compound 0.0316 µM, first compound 0.316 µM
[4] = second compound 0.0316 µM, first compound 1 µM
[5] = second compound 0.0316 µM, first compound 3.16 µM
[6] = second compound 0.0316 µM, first compound 10 µM
[7] = second compound 0.1 µM, first compound 0.0316 µM
[8] = second compound 0.1 µM, first compound 0.1 µM
[9] = second compound 0.1 µM, first compound 0.316 µM
[10] = second compound 0.1 µM, first compound 1 µM
[11] = second compound 0.1 µM, first compound 3.16 µM
[12] = second compound 0.1 µM, first compound 10 µM
[13] = second compound 0.316 µM, first compound 0.0316 µM
[14] = second compound 0.316 µM, first compound 0.1 µM
[15] = second compound 0.316 µM, first compound 0.316 µM
[16] = second compound 0.316 µM, first compound 1 µM
[17] = second compound 0.316 µM, first compound 3.16 µM
[18] = second compound 0.316 µM, first compound 10 µM
[19] = second compound 1 µM, first compound 0.0316 µM
[20] = second compound 1 µM, first compound 0.1 µM
[21] = second compound 1 µM, first compound 0.316 µM
[22] = second compound 1 µM, first compound 1 µM
[23] = second compound 1 µM, first compound 3.16 µM
[24] = second compound 1 µM, first compound 10 µM
[25] = second compound 0.00316 µM, first compound 0.0316 µM
[26] = second compound 0.00316 µM, first compound 0.1 µM
[27] = second compound 0.00316 µM, first compound 0.316 µM
[28] = second compound 0.00316 µM, first compound 1 µM
[29] = second compound 0.00316 µM, first compound 3.16 µM
[30] = second compound 0.00316 µM, first compound 10 µM
[31] = second compound 0.01 µM, first compound 0.0316 µM
[32] = second compound 0.01 µM, first compound 0.1 µM
[33] = second compound 0.01 µM, first compound 0.316 µM
[34] = second compound 0.01 µM, first compound 1 µM
[35] = second compound 0.01 µM, first compound 3.16 µM
[36] = second compound 0.01 µM, first compound 10 µM
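Also: spheroids exposed to compounds for seven days.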
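For viability, T/C in this document: 100% = DMSO vehicle control viability.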

C[C@@H](NC(=O)c1ncnc(N)c1Cl)c1ncc(C(=O)Nc2cc(C(F)(F)F)c(Cl)cn2)s1 + Cc1nc(NC(=O)N2CCCC2C(N)=O)sc1-c1ccnc(C(C)(C)C(F)(F)F)c1
IC50 (second compound 0.0316 µM): > 10 µM
IC50 (second compound 0.1 µM): > 10 µM
IC50 (second compound 0.316 µM): > 10 µM
IC50 (second compound 1 µM): > 10 µM
IC50 (second compound 3.16 µM): > 10 µM
IC50 (second compound 10 µM): < 0.0316 µM
viability, T/C [1]: 106%
viability, T/C [2]: 93.3%
viability, T/C [3]: 103%
viability, T/C [4]: 101%
viability, T/C [5]: 108%
viability, T/C [6]: 107%
viability, T/C [7]: 104%
viability, T/C [8]: 112%
viability, T/C [9]: 92.8%
viability, T/C [10]: 111%
viability, T/C [11]: 115%
viability, T/C [12]: 113%
viability, T/C [13]: 111%
viability, T/C [14]: 121%
viability, T/C [15]: 104%
viability, T/C [16]: 105%
viability, T/C [17]: 110%
viability, T/C [18]: 109%
viability, T/C [19]: 104%
viability, T/C [20]: 92%
viability, T/C [21]: 89.7%
viability, T/C [22]: 101%
viability, T/C [23]: 98.6%
viability, T/C [24]: 88%
viability, T/C (second compound 3.16 µM, first compound 0.0316 µM): 63.7%
viability, T/C (second compound 3.16 µM, first compound 0.1 µM): 60%
viability, T/C (second compound 3.16 µM, first compound 0.316 µM): 69.2%
viability, T/C (second compound 3.16 µM, first compound 1 µM): 71.1%
viability, T/C (second compound 3.16 µM, first compound 3.16 µM): 64.9%
viability, T/C (second compound 3.16 µM, first compound 10 µM): 58.4%
viability, T/C (second compound 10 µM, first compound 0.0316 µM): 31.8%
viability, T/C (second compound 10 µM, first compound 0.1 µM): 35.1%
viability, T/C (second compound 10 µM, first compound 0.316 µM): 38.2%
viability, T/C (second compound 10 µM, first compound 1 µM): 33.4%
viability, T/C (second compound 10 µM, first compound 3.16 µM): 39.6%
viability, T/C (second compound 10 µM, first compound 10 µM): 39.5%

Cn1nccc1Nc1nccc(-c2ccn(C(CO)c3ccc(Cl)c(F)c3)c(=O)c2)n1 (stereo unspecified) + COc1c(OCCCN2CCOCC2)ccc2c3n(c(=NC(=O)c4cnc(N)nc4)nc12)CCN3
IC50 (second compound 0.00316 µM): > 10 µM
IC50 (second compound 0.01 µM): > 10 µM
IC50 (second compound 0.0316 µM): > 10 µM
IC50 (second compound 0.1 µM): < 0.0316 µM
IC50 (second compound 0.316 µM): < 0.0316 µM
IC50 (second compound 1 µM): < 0.0316 µM
viability, T/C [25]: 100%
viability, T/C [26]: 97%
viability, T/C [27]: 106%
viability, T/C [28]: 111%
viability, T/C [29]: 102%
viability, T/C [30]: 90.1%
viability, T/C [31]: 104%
viability, T/C [32]: 108%
viability, T/C [33]: 97.8%
viability, T/C [34]: 106%
viability, T/C [35]: 94%
viability, T/C [36]: 89.5%
viability, T/C [1]: 75.8%
viability, T/C [2]: 83.2%
viability, T/C [3]: 69.5%
viability, T/C [4]: 77.1%
viability, T/C [5]: 66.5%
viability, T/C [6]: 55.6%
viability, T/C [7]: 38.2%
viability, T/C [8]: 43.3%
viability, T/C [9]: 41%
viability, T/C [10]: 38.4%
viability, T/C [11]: 34.7%
viability, T/C [12]: 32%
viability, T/C [13]: 16.6%
viability, T/C [14]: 15.3%
viability, T/C [15]: 12.2%
viability, T/C [16]: 9.87%
viability, T/C [17]: 9.43%
viability, T/C [18]: 7.53%
viability, T/C [19]: 10.9%
viability, T/C [20]: 9.68%
viability, T/C [21]: 7.11%
viability, T/C [22]: 5.54%
viability, T/C [23]: 4.07%
viability, T/C [24]: 2.53%

C=CC(=O)N1CCN(c2nc(=O)n(-c3c(C)ccnc3C(C)C)c3nc(-c4c(O)cccc4F)c(F)cc23)C(C)C1 (stereo unspecified) + COc1c(OCCCN2CCOCC2)ccc2c3n(c(=NC(=O)c4cnc(N)nc4)nc12)CCN3
IC50 (second compound 0.00316 µM): > 10 µM
IC50 (second compound 0.01 µM): > 10 µM
IC50 (second compound 0.0316 µM): > 10 µM
IC50 (second compound 0.1 µM): < 0.0316 µM
IC50 (second compound 0.316 µM): < 0.0316 µM
IC50 (second compound 1 µM): < 0.0316 µM
viability, T/C [25]: 98.3%
viability, T/C [26]: 103%
viability, T/C [27]: 106%
viability, T/C [28]: 96.1%
viability, T/C [29]: 101%
viability, T/C [30]: 106%
viability, T/C [31]: 92%
viability, T/C [32]: 99.4%
viability, T/C [33]: 106%
viability, T/C [34]: 112%
viability, T/C [35]: 112%
viability, T/C [36]: 96.5%
viability, T/C [1]: 70.6%
viability, T/C [2]: 80.3%
viability, T/C [3]: 91.4%
viability, T/C [4]: 90.4%
viability, T/C [5]: 83.6%
viability, T/C [6]: 82.9%
viability, T/C [7]: 44.8%
viability, T/C [8]: 48.9%
viability, T/C [9]: 52.1%
viability, T/C [10]: 48.7%
viability, T/C [11]: 50.1%
viability, T/C [12]: 42.9%
viability, T/C [13]: 16.8%
viability, T/C [14]: 17.9%
viability, T/C [15]: 15.4%
viability, T/C [16]: 18.2%
viability, T/C [17]: 19.1%
viability, T/C [18]: 13.5%
viability, T/C [19]: 12%
viability, T/C [20]: 12.6%
viability, T/C [21]: 12.8%
viability, T/C [22]: 13.7%
viability, T/C [23]: 14.6%
viability, T/C [24]: 10.2%
